Source: patent US10703757B2, “Compounds and methods for CDK8 modulation and indications therefor” (Plexxikon Inc., priority 2016, dated 2020)

System: CDK8 (phosphorylation of STAT1 at serine 727 in A549 cells)
Experiment: Cell based Phospho-STAT1 assay (IFNγ-stimulated A549 cells, AlphaLISA)
Settings: Homo sapiens, A549, A549 cells, phospho-STAT1 after IFNγ stimulation
Description: Determine Inhibitor Activity Against CDK8 in Cell Based Phospho-STAT1 Assay
This assay measures the phosphorylation of the CDK8 substrate STAT1 following Interferon-gamma (IFNγ) stimulation^1. The lung carcinoma cell line A549 is seeded in a 96 well plate in 50 μL of culture media at 5×10^4 cells/well and incubated at 37° C. overnight. Serial dilutions of compounds (in total volume of 50 μL culture media) are added to the cells and incubated at 37° C. for one hour. Human IFNγ (R&D Systems) is added to the cells at a 10 ng/mL final concentration. 4 wells containing DMSO treated cells stimulated with IFNγ serve as high controls and 4 wells containing DMSO treated unstimulated cells serve as low controls. After 30 minute IFNγ stimulation at 37° C., the culture media is removed and 50 μL of 1×AlphaLISA lysis buffer (PerkinElmer GA, USA) is added to each well. 5 μL cell lysate is transferred to a 384 well AlphaPlate (PerkinElmer GA, USA) and 5 μL containing 0.156 nM Phospho-STAT1 (Ser727) rabbit monoclonal antibody (Cell Signaling Technology), 0.156 nM Mouse Anti-STAT1 antibody (BD Transduction Laboratories), and 10 μg/mL Anti-rabbit IgG AlphaLISA acceptor beads (PerkinElmer GA, USA) diluted in 1× AlphaLISA immunoassay buffer (PerkinElmer GA, USA) is added to the cell lysates and incubated at room temperature for 90 minutes. 5 μL Anti-Mouse IgG Alpha donor beads diluted in 1× AlphaLISA immunoassay buffer (PerkinElmer GA, USA) is added to the reaction mixture and incubated at room temperature for 90 minutes. Upon excitation of these beads with laser light at 680 nm, singlet oxygen is produced. This singlet oxygen is rapidly quenched, unless the AlphaLISA Anti-Rabbit IgG acceptor beads are in close proximity, in which case a proximity signal can be measured at […]. In the presence of cellular CDK8 catalytic activity, there is a very strong proximity signal. Selective CDK8 inhibitors affect a decrease in this proximity signal through a decrease in phosphorylation of STAT1 at serine 727. The percentage inhibition at individual concentrations relative to high and low controls is calculated. The data are analyzed by using nonlinear regression to generate IC50 values.

SMILES	IC50
Cn1cc(-c2ccc(-c3cnc4cccc(N5CCC(C(N)=O)CC5)n34)cc2)cn1 [Compound P-0400, 1-(3-(4-(1-methyl-1H-pyrazol-4-yl)phenyl)imidazo[1,2-a]pyridin-5-yl)piperidine-4-carboxamide]	100 to 1000 nM
Cn1ncc2cc(-c3nnc4cccc(C5=CCC(C#N)CC5)n34)ccc21 (stereo not shown) [Compound P-0345, 4-(3-(1-methyl-1H-indazol-5-yl)-[1,2,4]triazolo[4,3-a]pyridin-5-yl)cyclohex-3-ene-1-carbonitrile]	1000 to 10000 nM
CC1(C#N)CCN(c2cccn3ncc(-c4ccc(-c5cnn(C(F)F)c5)cc4)c23)CC1 [Compound P-0404, 1-[3-[4-[1-(difluoromethyl)pyrazol-4-yl]phenyl]pyrazolo[1,5-a]pyridin-4-yl]-4-methyl-piperidine-4-carbonitrile]	0.1 to 100 nM
Cn1cc(-c2ccc(-c3cnn4cccc(C5=CCS(=O)(=O)CC5)c34)cc2)cn1 [Compound P-0300, 4-(3-(4-(1-methyl-1H-pyrazol-4-yl)phenyl)pyrazolo[1,5-a]pyridin-4-yl)-3,6-dihydro-2H-thiopyran 1,1-dioxide]	100 to 1000 nM
Cn1cncc1C#Cc1cnc2cccc(N3CCC4(CC3)C(=O)Nc3ccccc34)n12 [Compound P-0376, 1′-[3-[2-(3-methylimidazol-4-yl)ethynyl]imidazo[1,2-a]pyridin-5-yl]spiro[indoline-3,4′-piperidine]-2-one]	100 to 1000 nM
Cn1cc(-c2ccc(-c3cnc4cccc(N5CCN(c6nccs6)CC5)n34)cc2)cn1 [Compound P-0383, 2-(4-(3-(4-(1-methyl-1H-pyrazol-4-yl)phenyl)imidazo[1,2-a]pyridin-5-yl)piperazin-1-yl)thiazole]	1000 to 10000 nM
CN1CCN(C(=O)c2ccc3cc(-c4cnn5cccc(C6=CCC(C#N)CC6)c45)ccc3c2)CC1 (stereo not shown) [Compound P-0356, 4-(3-(6-(4-methylpiperazine-1-carbonyl)naphthalen-2-yl)pyrazolo[1,5-a]pyridin-4-yl)cyclohex-3-ene-1-carbonitrile]	0.1 to 100 nM
Cn1ncc2ccc(-c3cnc4[nH]ccc4c3C3=CCC(C#N)CC3)cc21 (stereo not shown) [Compound P-0340, 4-(5-(1-methyl-1H-indazol-6-yl)-1H-pyrrolo[2,3-b]pyridin-4-yl)cyclohex-3-ene-1-carbonitrile]	0.1 to 100 nM
Cc1nn(C)c(C)c1-c1ccc(-c2cnn3cccc(C#CC(C)(C)O)c23)cc1 [Compound P-0236, 2-methyl-4-(3-(4-(1,3,5-trimethyl-1H-pyrazol-4-yl)phenyl)pyrazolo[1,5-a]pyridin-4-yl)but-3-yn-2-ol]	1000 to 10000 nM
Cn1cc(-c2ccc(-c3cnn4cccc(C5CCC(C#N)CC5)c34)cc2)cn1 (stereo not shown) [Compound P-0347, 4-(3-(4-(1-methyl-1H-pyrazol-4-yl)phenyl)pyrazolo[1,5-a]pyridin-4-yl)cyclohexane-1-carbonitrile]	100 to 1000 nM
Cn1cc(C#Cc2cnn3cccc(C4=CCC(C#N)CC4)c23)cn1 (stereo not shown) [Compound P-0433, 4-[3-[2-(1-methylpyrazol-4-yl)ethynyl]pyrazolo[1,5-a]pyridin-4-yl]cyclohex-3-ene-1-carbonitrile]	0.1 to 100 nM
CNC(=O)C1CCN(c2cccc3ncc(-c4ccc(-c5cnn(C)c5)cc4)n23)CC1 [Compound P-0380, N-methyl-1-(3-(4-(1-methyl-1H-pyrazol-4-yl)phenyl)imidazo[1,2-a]pyridin-5-yl)piperidine-4-carboxamide]	1000 to 10000 nM
FC(F)n1cc(-c2ccc(-c3cnc4cccc(OC5CCSCC5)n34)cc2)cn1 [Compound P-0348, 3-(4-(1-(difluoromethyl)-1H-pyrazol-4-yl)phenyl)-5-((tetrahydro-2H-thiopyran-4-yl)oxy)imidazo[1,2-a]pyridine]	1000 to 10000 nM
N#CC1CCN(c2cccn3ncc(-c4ccc(-c5nc(C6CC6)no5)cc4)c23)CC1 [Compound P-0423, 1-(3-(4-(3-cyclopropyl-1,2,4-oxadiazol-5-yl)phenyl)pyrazolo[1,5-a]pyridin-4-yl)piperidine-4-carbonitrile]	0.1 to 100 nM
CCOC(=O)C1CC=C(c2cccn3ncc(-c4ccc(-c5cnn(C)c5)cc4)c23)CC1 (stereo not shown) [Compound P-0446, ethyl 4-(3-(4-(1-methyl-1H-pyrazol-4-yl)phenyl)pyrazolo[1,5-a]pyridin-4-yl)cyclohex-3-ene-1-carboxylate]	100 to 1000 nM
CNC(=O)C1CC=C(c2cccn3ncc(-c4ccc(-c5cnn(C)c5)cc4)c23)CC1 (stereo not shown) [Compound P-0442, N-methyl-4-(3-(4-(1-methyl-1H-pyrazol-4-yl)phenyl)pyrazolo[1,5-a]pyridin-4-yl)cyclohex-3-ene-1-carboxamide]	0.1 to 100 nM
Cn1cc(-c2ccc(-c3cnc4cccc(N5CCN(c6cccnc6)CC5)n34)cc2)cn1 [Compound P-0386, 3-(4-(1-methyl-1H-pyrazol-4-yl)phenyl)-5-(4-(pyridin-3-yl)piperazin-1-yl)imidazo[1,2-a]pyridine]	0.1 to 100 nM
O=S1(=O)CCC(Oc2cccc3ncc(-c4ccc(-c5cnn(C(F)F)c5)cc4)n23)CC1 [Compound P-0349, 4-((3-(4-(1-(difluoromethyl)-1H-pyrazol-4-yl)phenyl)imidazo[1,2-a]pyradin-5-yl)oxy)tetrahydro-2H-thiopyran 1,1-dioxide]	100 to 1000 nM

Now from value to compound:

IC50	SMILES
1000 to 10000 nM	Cn1cc(-c2ccc(-c3cnn4cccc(-c5cn[nH]c5)c34)cc2)cn1 [Compound P-0430, 3-(4-(1-methyl-1H-pyrazol-4-yl)phenyl)-4-(1H-pyrazol-4-yl)pyrazolo[1,5-a]pyridine]
1000 to 10000 nM	CC(C)(O)C#Cc1cccn2ncc(-c3ccc(Oc4ccccc4)cc3)c12 [Compound P-0410, 2-methyl-4-(3-(4-phenoxyphenyl)pyrazolo[1,5-a]pyridin-4-yl)but-3-yn-2-ol]
0.1 to 100 nM	Cn1cc(-c2ccc(-c3cnn4cccc(N5CCC(C#N)(c6ccccn6)CC5)c34)cc2)cn1 [Compound P-0365, 1-(3-(4-(1-methyl-1H-pyrazol-4-yl)phenyl)pyrazolo[1,5-a]pyridin-4-yl)-4-(pyridin-2-yl)piperidine-4-carbonitrile]
1000 to 10000 nM	CNC(=O)N1CCC(Oc2cccc3ncc(-c4ccc(-c5cnn(C(F)F)c5)cc4)n23)CC1 [Compound P-0292, 4-((3-(4-(1-(difluoromethyl)-1H-pyrazol-4-yl)phenyl)imidazo[1,2-a]pyridin-5-yl)oxy)-N-methylpiperidine-1-carboxamide]
0.1 to 100 nM	Cn1ncc2cc(-c3cnc4cccc(C5=CCC(C#N)CC5)n34)ccc21 (stereo not shown) [Compound P-0367, 4-(3-(1-methyl-1H-indazol-5-yl)imidazo[1,2-a]pyridin-5-yl)cyclohex-3-ene-1-carbonitrile]
100 to 1000 nM	CC(C)(O)C#Cc1cccn2ncc(-c3ccc(NS(=O)(=O)C4CC4)cc3)c12 [Compound P-0412, N-(4-(4-(3-hydroxy-3-methylbut-1-yn-1-yl)pyrazolo[1,5-a]pyridin-3-yl)phenyl)cyclopropane-sulfonamide]
1000 to 10000 nM	Cn1cc(-c2ccc(-c3cnc4cccc(NCc5cccnc5)n34)cc2)cn1 [Compound P-0377, 3-(4-(1-methyl-1H-pyrazol-4-yl)phenyl)-N-(pyridin-3-ylmethyl)imidazo[1,2-a]pyridin-5-amine]
0.1 to 100 nM	Cn1ncc2cc(-c3cnc4[nH]ccc4c3C3=CCC(C(N)=O)CC3)ccc21 (stereo not shown) [Compound P-0335, 4-(5-(1-methyl-1H-indazol-5-yl)-1H-pyrrolo[2,3-b]pyridin-4-yl)cyclohex-3-ene-1-carboxamide]
0.1 to 100 nM	Cn1cc(-c2ccc(-c3cnn4cccc(C#CC(O)c5ccccc5)c34)cc2)cn1 (stereo not shown) [Compound P-0426, 3-[3-[4-(1-methylpyrazol-4-yl)phenyl]pyrazolo[1,5-a]pyridin-4-yl]-1-phenyl-prop-2-yn-1-ol]
0.1 to 100 nM	Cn1cc(C#Cc2cnc3cccc(C4=CCC(C#N)CC4)n23)cn1 (stereo not shown) [Compound P-0374, 4-(3-((1-methyl-1H-pyrazol-4-yl)ethynyl)imidazo[1,2-a]pyridin-5-yl)cyclohex-3-ene-1-carbonitrile]
1000 to 10000 nM	NC(=O)N1CCC(Oc2cccc3ncc(-c4ccc(-c5cnn(C(F)F)c5)cc4)n23)CC1 [Compound P-0299, 4-((3-(4-(1-(difluoromethyl)-1H-pyrazol-4-yl)phenyl)imidazo[1,2-a]pyridin-5-yl)oxy)piperidine-1-carboxamide]
1000 to 10000 nM	Cn1cc(-c2ccc(-c3cnc4cccc(OC5CCC(F)(F)CC5)n34)cc2)cn1 [Compound P-0372, 5-((4,4-difluorocyclohexyl)oxy)-3-(4-(1-methyl-1H-pyrazol-4-yl)phenyl)imidazo[1,2-a]pyridine]
1000 to 10000 nM	N#CC1CCN(c2cccc3ncc(-c4ccc(CNC(=O)c5cccnc5)cc4)n23)CC1 [Compound P-0448, N-(4-(5-(4-cyanopiperidin-1-yl)imidazo[1,2-a]pyridin-3-yl)benzyl)nicotinamide]
